This is an account of results in PMC6153434, “Bystander Effects of Hypoxia-Activated Prodrugs: Agent-Based Modeling Using Three Dimensional Cell Cultures” (Frontiers in Pharmacology, 2018).

Data set [1] can be described thus: Stability in culture medium at 37°C by LC-MS/MS.
For data set [2], the system named is POR-null 'target' HCT116 cell lines (PORko-R, PORko-G). Put plainly: Monolayer clonogenic assay under anoxia (targets). Format: cell-based. Conditions: monolayer cultures, anoxic exposure 1 h (used for ABM analysis, Figure 9A). An excerpt:
Log-phase cells were trypsinized and cell pellets, collected by centrifugation, were transferred to a Bactron anaerobic chamber (Sheldon Manufacturing Inc., Cornelius, OR, United States) under 3–5% H2/5% CO2/balance N2, <100 ppm O2, with a palladium/activated carbon catalyst to maintain anoxia. (The term “anoxia” is used throughout to refer to the gas phase, without necessarily implying complete anoxia in monolayers or spheroids as discussed below.) Cells were resuspended and seeded at 10^5 cells/0.15 mL in 96-well plates using medium and plates equilibrated in the chamber for 3 days to ensure complete deoxygenation. After incubation at 37 °C for 2 h for cell attachment, cells were exposed to drugs for 1 h, removed from the chamber, trypsinized, counted with a Coulter counter (model Z2; Beckman Coulter^TM, Indianapolis, IN, United States) and plated in 6-well plates. After 10 days, plates were stained with methylene blue (2 g/L in EtOH:H2O, 1:1 v/v) and colonies with more than 50 cells were counted. Plating efficiency (PE) was calculated as number of colonies/number of cells plated, and surviving fraction (SF) was determined as PE(drug treated)/PE(control).

The test system of data set [3] is high-POR 'activator' HCT116 cell lines (POR-R, POR-G). Format: cell-based. Conditions: monolayer cultures.
The test system of data set [4] is POR-null 'target' HCT116 cells in spheroids. Type of data set: cell-based.
In data set [5] the test system is high-POR 'activator' HCT116 cells in spheroids. Put plainly: Spheroid clonogenic assay under anoxia (activators in co-culture spheroids). Type of data set: cell-based. The settings on record: spheroids comprising 100% activators, anoxic exposure 1 h (Figure 9B).
In data set [6] the test system is POR-G activators and PORko-R targets (HCT116).
A further data set concerns HCT116 and HCT116/POR#6. Conditions: cited from earlier work.
The mark [7] stands for this setting: published value, PR104H+M model, ref Foehrenbacher et al., 2013.
The mark [8] stands for this setting: published value, ref Foehrenbacher et al., 2013.

For the compound `O=C(NCCO)c1cc(NO)cc([N+](=O)[O-])c1N(CCCl)CCCl` [Metabolite A, 2-(Bis(2-chloroethyl)amino)-5-(hydroxyamino)-N-(2-hydroxyethyl)-3-nitrobenzamide], in the data set with SiHa cells, the “cytotoxic potency relative to PR104H” value is on record as “lower cytotoxic potency”. Also, the “half-life in culture medium relative to PR104H” value in data set [1] is listed as “fourfold longer half-life”.
By half-life is commonly meant the time needed for the level to fall by half in the phase considered. High values mean slow decline, low ones rapid decline. In the case of `CS(=O)(=O)OCCN(CCBr)c1c(C(=O)NCCO)cc([N+](=O)[O-])cc1[N+](=O)[O-]` [PR104A], the “PR-104A concentration giving 90% kill” value in data set [2] stood at 17 µM. Besides, the “PR-104A concentration giving 90% kill” value in data set [3] (activators, anoxic exposure 1 h (used for ABM analysis, Figure 9A)) came out at 1 µM. In data set [3] (1 h under anoxia, relative to targets), the “sensitivity of activator cell lines (clonogenic survival)” value was “marked increases in the sensitivity”. Further, the “killing of target cells as proportion of activators increases” value in data set [4] (co-culture spheroids 0, 10, 50 or 100% activators, 1 h under anoxia) was “markedly increased with increasing proportion of POR-G activator cells”. The bystander effect result in data set [4] (spheroid co-cultures with ABM simulation, anoxia) is on record as “clearly demonstrated the existence of a bystander effect”. For the same compound, the “concentration giving 90% kill in spheroids” value in data set [4] (spheroids comprising 100% targets, anoxic exposure 1 h (Figure 9B)) came to 20 µM. Besides, the “concentration giving 90% kill in spheroids” value in [5] came out at 5 µM. In data set [6], the “Activator F2, proportion of O2-dependent rate of metabolism of the drug in activators” value was determined as 0.977; the “Activator Kmet,0, rate constant for the maximum rate of metabolism in activator cells under anoxia” value stood at 2 min⁻¹; the Hill parameter n stood at 2; the “KO2, O2 concentration for half-maximum prodrug activation” value was 0.126. In addition, in data set [6], the “Kc, intrinsic cytotoxic potency” value was found to be 0 mM⁻¹ s⁻¹; the “Kin, rate constant for transfer from the extracellular to the intracellular compartment” value came out at 3 min⁻¹; the “Kout, rate constant for transfer from the intracellular to the extracellular compartment” value was found to be 0.5 min⁻¹; the “Target F2, proportion of O2-dependent rate of metabolism of the drug in targets” value is given as 0.977. Besides, the “Target Kmet,0, rate constants for the maximum rate of metabolism in target cells under anoxia” value in [6] was 0.03 min⁻¹. Further, the half-life in “physchem” was 612 min. Besides, in the data set with HCT116 and HCT116/POR#6 (37 °C, published value, PR104H+M model, ref Foehrenbacher et al., 2013), the “Half-life, non-enzymatic loss in culture medium” value is 10.2 h. In the data set with HCT116 and HCT116/POR#6 (setting [7]), the “Activator Kmet,0, rate constant for the maximum rate of metabolism in activator cells under anoxia” value was 1.08 min⁻¹; the “Kc, intrinsic cytotoxic potency” value is 0 mM⁻¹ s⁻¹; the “Kin, rate constant for transfer from the extracellular to the intracellular compartment” value is 3 min⁻¹; the “Kout, rate constant for transfer from the intracellular to the extracellular compartment” value is 0.5 min⁻¹. The “Target Kmet,0, rate constants for the maximum rate of metabolism in target cells under anoxia” value in the data set on HCT116 and HCT116/POR#6 (setting [7]) was 0.054 min⁻¹. Moreover, in the data set on HCT116 and HCT116/POR#6 (setting [8]), the “Activator F2, proportion of O2-dependent rate of metabolism of the drug in activators” value is 0.977; the Hill parameter n is recorded as 1; the “Target F2, proportion of O2-dependent rate of metabolism of the drug in targets” value was 0.977. Moreover, in the data set with HCT116 and HCT116/POR#6 (published value, ref Hicks et al., 2007), the “KO2, O2 concentration for half-maximum prodrug activation” value was 0.126. The “KO2 (sensitivity of PR104A metabolism to oxygen)” value with HCT116 and HCT116/POR#6 (ref Hicks et al., 2007) is 0.126 µM.
